Assay results published in patent publication US4983613A, “Isoquinoline acetic acids and acetyl carbamates useful as aldose reductase inhibitors” (American Home Products Corporation, priority 1989, dated 1991).
Values belong to the molecule of their own block, whether it stands above or below them.

What was measured:
aldose reductase = target: T1, aldose reductase (Bos taurus, UniProt P16116); assay: in vitro inhibition of aldose reductase (modified Hayman and Kinoshita procedure, enzyme from bovine lens); format: biochemical; conditions: for inhibition at 0.04 µM: 4 × 10^-8 M; for inhibition at 10 µM: 10^-5 M; for inhibition at 1 µM: 10^-6 M; for inhibition at 0.1 µM: 10^-7 M
T1 construct: in the preparation of the enzyme from bovine lens; from tissue; host or cells: bovine lens
Experimental: (c) The polyol determination was performed by a modification of the procedure of M. Kraml and L. Cosyns, Clin. Biochem., 2,373 (1969). Only two minor reagent changes were made: (a) The rinsing mixture was an aqueous 5% (w/v) trichloroacetic acid solution and (b) the stock solution was prepared by dissolving 25 mg of dulcitol in 100 ml of an aqueous trichloroacetic acid solution. [N.B.: For each experiment the average value found in the tissue from rats fed the glucose diet was subtracted from the individual values found in the corresponding tissue in galactose-fed rats to obtain the amount of polyol accumulated.] The aldose reductase inhibiting effects of the compounds of formula (I) were also tested by employing an in vitro testing procedure similar to that described by S. Hayman and J. H. Kinoshita, J. Biol. Chem., 240,877 (1965). In the present case the procedure of Hayman and Kinoshita was modified in that the final chromatography step was omitted in the preparation of the enzyme from bovine lens. […] The figures under L and N represent the percentage decrease of dulcitol accumulation in the tissues of the lens and sciatic nerve, respectively, for treated rats as compared to untreated rats.

[1] = system: dulcitol accumulation in sciatic nerve; assay: in vivo lowering of dulcitol accumulation in sciatic nerve of galactosemic rats; set-up: species or system rat (Sprague-Dawley); conditions: in diet, four days
Text: (§1) The aldose reductase inhibiting property of the compounds of this invention and the utilization of the compounds in preventing, diminishing and alleviating diabetic complications are demonstrable in experiments using galactosemic rats, see Dvornik et al., Science, 182, 1146 (1973). Such experiments are exemplified hereinbelow after the listing of the following general comments pertaining to these experiments:
(§2) (a) Four or more groups of six male rats, 50-70 g, Sprague-Dawley strain, were used. The first group, the control group, was fed a mixture of laboratory chow (Rodent Laboratory Chow, Purina) and glucose at 20% (w/w %) concentration. The untreated galactosemic group was fed a similar diet in which galactose is substituted for glucose. The third group was fed a diet prepared by mixing a given amount of the test compound with the galactose containing diet. The concentration of the galactose in the diet of the treated groups was the same as that for the untreated galactosemic group.
(§3) (b) After four days, the animals were killed by euthanization. The lenses were removed from the eyes and weighed. The sciatic nerves were dissected as completely as possible and weighed. Both tissues when frozen can be kept up to two weeks before being analyzed for dulcitol.
(c) The polyol determination was performed by a modification of the procedure of M. Kraml and L. Cosyns, Clin. Biochem., 2,373 (1969). Only two minor reagent changes were made: (a) The rinsing mixture was an aqueous 5% (w/v) trichloroacetic acid solution and (b) the stock solution was prepared by dissolving 25 mg of dulcitol in 100 ml of an aqueous trichloroacetic acid solution. [N.B.: For each experiment the average value found in the tissue from rats fed the glucose diet was subtracted from the individual values found in the corresponding tissue in galactose-fed rats to obtain the amount of polyol accumulated.] The aldose reductase inhibiting effects of the compounds of formula (I) were also tested by employing an in vitro testing procedure similar to that described by S. Hayman and J. H. Kinoshita, J. Biol. Chem., 240,877 (1965). In the present case the procedure of Hayman and Kinoshita was modified in that the final chromatography step was omitted in the preparation of the enzyme from bovine lens.
The figures under L and N represent the percentage decrease of dulcitol accumulation in the tissues of the lens and sciatic nerve, respectively, for treated rats as compared to untreated rats.

[2] = system: dulcitol accumulation in lens; assay: in vivo lowering of dulcitol accumulation in lens of galactosemic rats; set-up: species or system rat (Sprague-Dawley); conditions: in diet, four days
Text: as §1, §2, §3
(c) The polyol determination was performed by a modification of the procedure of M. Kraml and L. Cosyns, Clin. Biochem., 2,373 (1969). Only two minor reagent changes were made: (a) The rinsing mixture was an aqueous 5% (w/v) trichloroacetic acid solution and (b) the stock solution was prepared by dissolving 25 mg of dulcitol in 100 ml of an aqueous trichloroacetic acid solution. [N.B.: For each experiment the average value found in the tissue from rats fed the glucose diet was subtracted from the individual values found in the corresponding tissue in galactose-fed rats to obtain the amount of polyol accumulated.] […]

inhibition at 10 µM (aldose reductase): 50% | inhibition at 1 µM (aldose reductase): 17%
SMILES: COC(=O)NC(=O)CC1C(=O)N(C)C(=O)c2cc(Cl)ccc21 (stereo not shown) [7Cl, CH3, NHCO2 CH3, [(7-chloro-1,2,3,4-tetrahydro-2-methyl-1,3-dioxo-4-isoquinolinyl)acetyl]carbamic acid methyl ester]
% Lowering Ducitol Accumulation In vivo, Nerve ([1]; 24.3 mg/kg): 28%

inhibition at 10 µM (aldose reductase): 14.5%
SMILES: CCOC(=O)NC(=O)CC1C(=O)N(C)C(=O)c2ccc(Cl)cc21 (stereo not shown) [-6Cl, H, CH3, NHCO2 C2 H5, [(6-chloro-1,2,3,4-tetrahydro-2-methyl-1,3-dioxo-4-isoquinolinyl)acetyl]carbamic acid ethyl ester]
% Lowering Ducitol Accumulation In vivo, Nerve ([1]; 24.5 mg/kg): 34%

inhibition at 10 µM (aldose reductase): 61% | % Inhibition in vitro (aldose reductase; 10^- M (exponent not given)): 11%
SMILES: COC(=O)NC(=O)CC1C(=O)N(C)C(=O)c2ccccc21 (stereo not shown) [H, H, CH3, NHCO2 CH3, [(1,2,3,4-Tetrahydro-2-methyl-1,3-dioxo-4-isoquinolinyl)acetyl]carbamic Acid Methyl Ester]
% Lowering Ducitol Accumulation In vivo, Nerve ([1]; 26.8 mg/kg): 21.2% | % Lowering Ducitol Accumulation In vivo, Nerve ([1]; 85.0 mg/kg): 58.6% | % Lowering Ducitol Accumulation In vivo, Lens ([2]; 85.0 mg/kg): 37.2%

inhibition at 10 µM (aldose reductase): 55% | inhibition at 1 µM (aldose reductase): 18%
SMILES: COC(=O)NC(=O)CC1C(=O)N(Cc2ccc(Br)cc2F)C(=O)c2ccc(F)cc21 (stereo not shown) [[[2-[(4-Bromo-2-fluorophenyl)methyl]-6-fluoro-1,2,3,4-tetrahydro-1,3-dioxo-4-isoquinolinyl]acetyl]carbamic Acid Methyl Ester]
% Lowering Ducitol Accumulation In vivo, Nerve ([1]; 26 mg/kg): 78%

The remaining lines, values behind:

SMILES: O=C(O)CC1C(=O)N(Cc2ccc(Br)cc2F)C(=O)c2ccccc21 (stereo not shown) [2-[(4-Bromo-2-fluorophenyl)methyl]-1,2,3,4-tetrahydro-1,3-dioxo-4-isoquinolineacetic Acid]
inhibition at 0.04 µM (aldose reductase): 50% | inhibition at 10 µM (aldose reductase): 94% | inhibition at 1 µM (aldose reductase): 91% | inhibition at 0.1 µM (aldose reductase): 88%

SMILES: O=C(O)CC1C(=O)N(Cc2ccc(Br)cc2F)C(=O)c2ccc(F)cc21 (stereo not shown) [2-[(4-Bromo-2-fluorophenyl)methyl]-6-fluoro-1,2,3,4-tetrahydro-1,3-dioxo-4-isoquinolineacetic Acid]
inhibition at 0.04 µM (aldose reductase): 80% | inhibition at 10 µM (aldose reductase): 96% | inhibition at 1 µM (aldose reductase): 91% | inhibition at 0.1 µM (aldose reductase): 86% | % Lowering Ducitol Accumulation In vivo, Nerve ([1]; 25 mg/kg): 47%

SMILES: COC(=O)NC(=O)CC1C(=O)N(C)C(=O)c2ccc(Cl)cc21 (stereo not shown) [6Cl, H, CH3, NHCO2 CH3, [(6-chloro-1,2,3,4-tetrahydro-2-methyl-1,3-dioxo-4-isoquinolinyl)acetyl]carbamic acid methyl ester]
inhibition at 10 µM (aldose reductase): 64.5% | inhibition at 1 µM (aldose reductase): 26.6% | % Lowering Ducitol Accumulation In vivo, Nerve ([1]; 25 mg/kg): 53% | % Lowering Ducitol Accumulation In vivo, Nerve ([1]; 86.1 mg/kg): 81% | % Lowering Ducitol Accumulation In vivo, Lens ([2]; 25 mg/kg): 24% | % Lowering Ducitol Accumulation In vivo, Lens ([2]; 86.1 mg/kg): 55%
